Assay results published in a melting point compilation (Tetko et al.; mined from patent text by program, amines drawn as free bases though some values may be those of a salt).

SMILES | melting point [°C]
COc1ccccc1NC(=O)Nc1nc(N2CCN(c3ccccc3OC(C)C)CC2)nc(N(CCC(=O)O)Cc2ccc(Cl)c(Cl)c2)n1 | 115 to 118
COCN1c2cc(CCl)ccc2Sc2nccnc21 | 125 to 126
COC(=O)c1cn(-c2ccc(OC)c(OC3CC4CCC3C4)c2)c2ccccc12 (centres undefined) | 120 to 122
Nc1ccc2nccn2n1 | 198 to 202
CCCc1c(OCCCCC(=O)NCCCCc2cccnc2)ccc(C(C)=O)c1O | 76 to 78
CC1=C(Cc2ccc(C(C)C)cc2)C(=O)C2C=CC=CC2C1=O (centres undefined) | 64 to 65
CC(C)CNc1c([N+](=O)[O-])cnc2ccccc12 | 114 to 118
O=CCCc1ccc2oc(Cc3ccc4ccccc4c3)nc2c1 | 81 to 82
Cc1[nH]cnc1C=C1CCc2c(C)c3ccccc3n2C1=O | 252 to 255
CCCCCN1C(=O)C2CC2(c2ccc(N)cc2)C1=O (centres undefined) | 113 to 115
CCC1(CC)NC(=O)C(CC)(CC)N1 | 68 to 70
CCOC(=O)Cc1nc(-c2ccc(Cl)cc2)oc1-c1ccco1 | 105 to 106
COC(=O)c1cc(N)cc(N)c1SCc1ccccc1 | 80 to 82
COc1ccc(C)cc1NC(=O)Nc1ccc(N2CCN(C(=O)Nc3ccccc3)CC2)cc1 | 221
O=C(O)Cc1cc(C(=O)c2ccc(I)c([N+](=O)[O-])c2)sc1-c1ccccc1 | 100 to 103
CC1CCOC(CBr)(c2ccc(Oc3ccccc3)cc2)O1 (centres undefined) | 96 to 106
CC1=C2c3c(cnc4cc(Cl)ccc34)NC2CCN1 (centres undefined) | 209 to 212
COc1ccc(OC)c2c1C(=O)C=C(SCCCCCCCCCCC(=O)O)C2=O | 146 to 147
C#CCCCOc1c(C)cc(C(N)=O)cc1C | 81 to 84
CCCOc1c(OCCCN2C(=O)c3ccccc3C2=O)cc(C2CCC(c3cc(OC)c(OC)c(OC)c3)O2)cc1S(=O)(=O)CCC (centres undefined) | 195 to 196
O=C(O)c1ccc(NCCc2ccc(OCc3ccccc3)cc2)cc1 | 180 to 185
CC[C@]1(C(=O)NCC=Cc2ccccc2F)[C@H](C)C1(Cl)Cl (relative stereo) | 103 to 105
CC(C)(C)OC(=O)C(Cc1ccccc1)c1ccc([N+](=O)[O-])cc1 (centres undefined) | 98 to 99
CCN(CC)CCOc1ccc(Nc2ncc3c(n2)N(C)C(=O)N(C)C3)cc1 | 186
COc1c(F)c(F)c(C2=CC(=O)NC2=O)c(F)c1F | 91

SMILES | melting point [°C]
CN(C)C=NS(=O)(=O)c1ccc(F)c(F)c1 | 109 to 112
CC(C)(C)c1ccc(C(=O)Nc2cn3nc(-n4cnc(Br)c4)ccc3n2)cc1 | 306 to 307
O=C(NCCCCNS(=O)(=O)c1ccc(Oc2ccccc2)cc1)P(=O)(O)O | 143 to 145
Clc1ccc(N=Cc2ccc(-c3noc4ccccc34)cc2)cc1 | 164 to 165
CSc1ccc(OC(=O)OCc2ccccc2Cl)cc1 | 49.5 to 50
Oc1cnccc1CCCOc1cccnc1Nc1cccc(Br)c1 | 138 to 141
CCC1(CC)c2cc(-c3nc4ccccc4s3)ccc2-c2ccc(N(c3ccc(O)cc3)c3ccc(O)cc3)cc21 | 294 to 297
COc1cc2c(=O)n3nc(C(=O)O)cc3n(C)c2cc1OC | 284 to 285
CSC(=NS(=O)(=O)c1ccccc1)Nc1ccc(C#N)cc1 | 150
C[Si]1(CC(CN)CC(=O)O)CCCCC1 (centres undefined) | 140 to 143
COc1ncc(Cc2nnc(Nc3ccc(C(C)(C)C)cc3)c3ccccc23)cc1-c1ccco1 | 180 to 182
CN1CCC23c4c5ccc(O[Si](C)(C)C(C)(C)C)c4OC2C(O[Si](C)(C)C(C)(C)C)C=CC3C1C5 (centres undefined) | 118 to 119
CCOC(=O)C1(Cc2cccnc2)CCCN(C(=O)c2ccc(Nc3nccc(Nc4ccc(F)cc4)n3)cc2)C1 (centres undefined) | 119
CCCOc1nc2sccc2c(=N)n1CCC | 61 to 63
Cc1cc(NCc2ccc3oc(-c4ccccc4-c4nnn[nH]4)c(Br)c3c2)n2nccc2n1 | > 250
O=C(Nc1c(Cl)cncc1Cl)c1ccc(SCF)c(OC2CCCC2)c1 | 111 to 113
COc1cc(CCCC2SC(=O)NC2=O)ccc1OCc1nc(-c2ccccc2)sc1C (centres undefined) | 149 to 150
Fc1ccc(C(=S)N2CCCC(c3ccc(Cl)c(Cl)c3)=N2)cc1F | 135 to 136
CCN(CC)c1cc(-c2ccco2)ncn1 | 179 to 180
CC(C)(C)C(=O)c1ccc(C(=O)NC(=O)CCc2ccccc2)cc1 | 137 to 138
CC(C)C(CC(O)C(CC1CCCCC1)NC(=O)C(Cc1c[nH]cn1)NC(=O)C(N)Cc1ccccc1)C(O)CN(Cc1ccccn1)C(=O)OCc1ccccc1 (mixture of isomers) | 94
COc1cc(N2CCC(N3CCOCC3)C2)ccc1Nc1ncc2ccc(-c3ccccc3OC)n2n1 (centres undefined) | 80 to 87
O=[N+]([O-])c1c(O)ccc2cc(-c3ccc(O)cc3)ccc12 | 199 to 201
N#CN=C(Nc1cccnc1)NC(NC(=O)c1ccc(Cl)cc1)C1CCCCC1 (centres undefined) | 190 to 192
